Test system: Gram-positive and Gram-negative bacteria
Test: In vitro antibacterial assay, pooled statement over all tested strains
Format: cell-based, S. aureus, B. subtilis, S. typhi, E. coli

Compound	MIC
O=c1c(O)c(-c2ccc(O)c(O)c2)oc2cc(O)cc(O)c12 [Compound 1, quercetin]	0.0692 to 0.151 µM
O=c1c(O)c(-c2ccc(O)cc2)oc2cc(O)cc(O)c12 [Compound 3, kaempferol]	> 100 µg/mL

— article PMC7885310 (3 Biotech, 2021)
